In the assay the target is T1, cynomolgus BK1-receptor (Macaca fascicularis, UniProt Q3BCU0).
T1 construct: expressed in transfected cells; host or cells: CHO cells (homogenate)
T1 sequence (Q3BCU0 1-352): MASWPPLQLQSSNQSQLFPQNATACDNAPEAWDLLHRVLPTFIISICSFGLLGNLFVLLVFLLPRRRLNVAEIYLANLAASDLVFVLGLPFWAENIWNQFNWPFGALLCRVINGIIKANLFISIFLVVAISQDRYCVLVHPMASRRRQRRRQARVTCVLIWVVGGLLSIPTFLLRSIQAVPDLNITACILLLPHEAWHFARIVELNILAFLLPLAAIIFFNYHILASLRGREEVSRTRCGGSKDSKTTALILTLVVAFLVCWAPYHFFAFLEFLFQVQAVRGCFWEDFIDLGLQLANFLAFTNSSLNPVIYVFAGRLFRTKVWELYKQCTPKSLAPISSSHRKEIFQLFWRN
Kind of assay: cynoBK1-receptor binding assay. Particulars: CHO cells expressing cynomolgus BK1-receptor, radioligand kallidine (DesArg10,Leu9); for inhibition at 10 µM: at 10 μgmol/L. The gist of the method: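 Ki derived by non-linear fitting of concentration-binding curves. Test compound competed against 0.5 to 5.0 nM tritiated kallidine (DesArg10,Leu9) on cynomolgus BK1-CHO cell homogenate (50 to 250 μg protein/assay) for 60-180 minutes at ambient temperature, then filtered. 1.0 μM kallidine (DesArg10) set non-specific binding.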

Drawing on patent US20130131075A1, “NEW COMPOUNDS” (Boehringer Ingelheim International GmbH, priority 2009, published 2013), this text covers Ki and inhibition for 59 molecules.

In general, Ki refers to a measure of affinity in units of concentration, obtained from inhibition or displacement. A low value points to tighter binding. Usually inhibition stands for the drop in the measured response relative to a control, in per cent.

`CC(NC(=O)C1(NC(=O)c2cncnc2)CC1)c1ncc(Nc2ccc(F)cc2C#N)cc1F` (stereo not shown) [(212)]: the Ki was determined as 8 nM. This lies in the single-digit nanomolar range.

For `COc1cc(OC)cc(C(=O)N[C@@]2(C(=O)NCc3ccc(Nc4ccccc4C(F)(F)F)cc3)CCOC2)c1` [(103)], the inhibition at 10 µM came out at 87%.

As for `O=C(NC1(C(=O)NCc2ccc(Nc3ccc(Br)cc3C(F)(F)F)cn2)CC1)c1cncs1` [(172)], the Ki stood at 9.8 nM and the inhibition at 10 µM amounted to 100%.

For the molecule `O=C(NC1(C(=O)NCc2ccc(Nc3ccccc3C(F)(F)F)cc2)CC1)c1ccno1` [(24)], the inhibition at 10 µM turned out to be 107%.

For `Cc1ncc(C(=O)N[C@@]2(C(=O)NCc3ccc(Nc4ccccc4C(F)(F)F)cc3)CCOC2)cn1` [(83)], the Ki is 9 nM and the inhibition at 10 µM was determined as 113%.

For the molecule `N#Cc1cc(F)ccc1Nc1cnc(CNC(=O)C2(NC(=O)c3cncnc3)CC2)c(F)c1` [(160)], the Ki was determined as 17 nM and the inhibition at 10 µM is 106%.

As to `Nc1cncc(C(=O)NC2(C(=O)NCc3ccc(Nc4ccc(Cl)cc4C(F)(F)F)cn3)CC2)c1` [(217)], the affinity, expressed as Ki, was 12 nM. This lies in the double-digit nanomolar range.

Regarding `Nc1cc(C(=O)NC2(C(=O)NCc3ccc(Nc4ccc(F)cc4C(F)(F)F)cn3)CC2)[nH]n1` [(185)], the inhibition at 10 µM turned out to be 87%.

For the molecule `O=C(N[C@@]1(C(=O)NCc2ccc(Nc3ccccc3C(F)(F)F)cc2)CCOC1)c1ccoc1` [(93)], the inhibition at 10 µM was 84%.

For the molecule `O=C(NC1(C(=O)NCc2ccc(Nc3ccc(Br)cc3C(F)(F)F)cn2)CC1)c1cncc(O)c1` [(141)], the affinity, expressed as Ki, was 7.6 nM and the inhibition at 10 µM was determined as 100%.

As for `CCOc1ncc(C(=O)NC2(C(=O)NCc3ccc(Nc4ccc(Cl)cc4C(F)(F)F)cn3)CC2)cn1` [(390)], the Ki came out at 7.3 nM.

For `O=C(CC(F)(F)F)N[C@@]1(C(=O)NCc2ncc(Nc3ccc(F)cc3C(F)(F)F)cc2Cl)CCOC1` [(225)], affinity was put at a Ki of 68 nM. This Ki is about 9.3-fold higher than that of the molecule before.

On to `O=C(O)c1ccc(Nc2ccc(CNC(=O)C3(NC(=O)c4cncnc4)CC3)nc2)c(C(F)(F)F)c1` [(195)], for which the Ki was more than 500 nM and the inhibition at 10 µM was found to be 42%.

Regarding `O=C(N[C@@]1(C(=O)NCc2ccc(Nc3ccccc3C(F)(F)F)cc2)CCOC1)c1cccc(Cl)n1` [(67)], the inhibition at 10 µM turned out to be 63%.

As to `N#CCC(=O)NC1(C(=O)NCc2ccc(Nc3ccc(Cl)cc3C(F)(F)F)cn2)CC1` [(364)], affinity was put at a Ki of 77 nM.

In the case of `Cn1ccc(C(=O)N[C@@]2(C(=O)NCc3ccc(Nc4ccccc4C(F)(F)F)cc3)CCOC2)cc1=O` [(84)], the Ki was determined as 90 nM and the inhibition at 10 µM was determined as 104%.

`CNc1ncc(C(=O)N[C@@]2(C(=O)NCc3ccc(Nc4ccc(F)cc4C(F)(F)F)cn3)CCOC2)cn1` [(304)] gave a Ki of 135 nM.

The molecule `CNc1cncc(C(=O)N[C@@]2(C(=O)NCc3ccc(Nc4ccc(F)cc4C(F)(F)F)cn3)CCOC2)c1` [(311)] displayed a Ki of 349 nM.

With `CNc1ncc(C(=O)N[C@@]2(C(=O)NCc3ncc(Nc4ccc(Cl)cc4C(F)(F)F)cc3F)CCOC2)cn1` [(276)], affinity was put at a Ki of 17 nM. This Ki lies about 21-fold lower than the previous one.

With `O=C(NC1(C(=O)NCc2ccc(Nc3ccc(Cl)cc3Br)cn2)CC1)c1cncnc1` [(167)], the affinity corresponds to a Ki of 19 nM and the inhibition at 10 µM was found to be 104%.

For the molecule `CC(C#N)C(=O)NC1(C(=O)NCc2ccc(Nc3ccc(F)cc3C(F)(F)F)cn2)CC1` (stereo not shown) [(170)], the affinity, expressed as Ki, was 35 nM and the inhibition at 10 µM turned out to be 104%.

In turn, `Nc1ncc(C(=O)NC2(C(=O)NCc3ccc(Nc4ccc(Cl)cc4C(F)(F)F)cn3)CC2)cn1` [(370)] displayed a Ki of 1.4 nM.

`O=C(NC1(C(=O)NCc2ccc(Nc3c(F)cccc3Br)cn2)CC1)c1cncnc1` [(326)] yielded a Ki of 504 nM.

Take `COc1cc(C(=O)NC2(C(=O)NCc3ccc(Nc4ccc(Cl)cc4C(F)(F)F)cn3)CC2)on1` [(356)]: the Ki is 22 nM.

In the case of `CN(C)CCCCC(=O)NC1(C(=O)NCc2ccc(Nc3ccccc3C(F)(F)F)cc2)CC1` [(10)], the inhibition at 10 µM worked out at 58%.

The molecule `Nc1ccc(C(=O)N[C@@]2(C(=O)NCc3ncc(Nc4ccc(F)cc4C(F)(F)F)cc3F)CCOC2)cn1` [(348)] gave an inhibition constant Ki of 31 nM.

`O=C(NC1(C(=O)NCc2ccc(Nc3ccc(F)cc3C(F)(F)F)cc2)CC1)c1ccno1` [(31)]: the affinity corresponds to a Ki of 13 nM and the inhibition at 10 µM stood at 112%.

Consider `COc1ncc(C(=O)N[C@@]2(C(=O)NCc3ncc(Nc4c(F)cccc4C(F)(F)F)cc3Cl)CCOC2)cn1` [(258)], for which the affinity, expressed as Ki, was 37 nM.

For the molecule `Nc1cccc(C(=O)N[C@@]2(C(=O)NCc3ccc(Nc4ccccc4C(F)(F)F)cc3)CCOC2)n1` [(72)], the affinity, expressed as Ki, was 416 nM and the inhibition at 10 µM is 89%.

As for `CNc1ccc(C(=O)NC2(C(=O)NCc3ccc(Nc4ccc(Cl)cc4C(F)(F)F)cn3)CC2)cn1` [(347)], the affinity, expressed as Ki, was 12 nM. This lies in the double-digit nanomolar range.

On to `O=C(N[C@@]1(C(=O)NCc2ccc(Nc3ccccc3C(F)(F)F)cc2)CCOC1)c1ccc(O)nc1` [(98)], for which the Ki amounted to 417 nM and the inhibition at 10 µM came to 103%.

Consider `CCCCC(=O)NC1(C(=O)NCc2ccc(Nc3ccccc3C(F)(F)F)cc2)CC1` [(16)], for which the inhibition at 10 µM stood at 91%.

Molecule `Cc1ncc(C(=O)N[C@@]2(C(=O)NCc3ncc(Nc4ccc(Cl)cc4C(F)(F)F)cc3C)CCOC2)cn1` [(345)] displayed a Ki of 17 nM.

Take `Nc1cncc(C(=O)NC2(C(=O)NCc3ccc(Nc4ccc(Br)cc4C(F)(F)F)cn3)CC2)c1` [(178)]: the affinity, expressed as Ki, was 11 nM and the inhibition at 10 µM is 107%.

In turn, `O=C(N[C@@]1(C(=O)NCc2ncc(Nc3ccc(Cl)cc3C(F)(F)F)cc2Cl)CCOC1)c1cncnc1` [(278)] gave a Ki of 16 nM. This lies in the double-digit nanomolar range.

Molecule `O=C(NC1(C(=O)NCc2ccc(Nc3ccc(F)cc3C(F)(F)F)cn2)CC1)c1ccc(C(F)(F)F)nc1` [(254)] registered a Ki of 257 nM.

`O=C(NC1(C(=O)NCc2ccc(Nc3ccc(Cl)cc3C(F)(F)F)cn2)CC1)c1ccc(O)nc1` [(239)] showed a Ki of 182 nM.

The molecule `CC(NC(=O)C1(NC(=O)c2cncnc2)CC1)c1ncc(Nc2ccc(Cl)cc2C(F)(F)F)cc1F` (stereo not shown) [(203)] showed a Ki of 1.9 nM. This Ki is about 96-fold lower than that of the molecule before.

With `COC1CC(C(=O)N[C@@]2(C(=O)NCc3ccc(Nc4ccccc4C(F)(F)F)cc3)CCOC2)C1` (stereo partly shown) [(75)], the inhibition at 10 µM amounted to 71%.

For `Cc1cc(Nc2ccccc2C(F)(F)F)cnc1CNC(=O)C1(NC(=O)c2cncc(N)c2)CC1` [(375)], the Ki is 48 nM.

Consider `N#Cc1ccc(F)cc1Nc1ccc(CNC(=O)C2(NC(=O)c3cncnc3)CC2)cc1` [(114)], for which the Ki is more than 500 nM and the inhibition at 10 µM was 77%.

Molecule `Nc1ccc(C(=O)N[C@@]2(C(=O)NCc3ccc(Nc4ccc(F)cc4C(F)(F)F)cn3)CCOC2)cn1` [(349)] yielded a Ki of 648 nM.

In turn, `CC(C)c1ncc(C(=O)N[C@@]2(C(=O)NCc3ccc(Nc4ccc(F)cc4C(F)(F)F)cc3)CCOC2)cn1` [(310)] gave a Ki of 39 nM.

Consider `O=C(NC1(C(=O)NCc2ncc(Nc3c(F)cccc3C(F)(F)F)cc2F)CC1)c1cccc(O)n1` [(136)], for which the affinity corresponds to a Ki of 42 nM and the inhibition at 10 µM was found to be 104%.

`O=C(N[C@@]1(C(=O)NCc2ccc(Nc3ccc(F)cc3C(F)(F)F)cc2)CCOC1)c1cnc2[nH]ccc2c1` [(383)] yielded a Ki of 225 nM. That is a sub-micromolar value.

`CNc1cncc(C(=O)NC2(C(=O)NCc3ncc(Nc4c(F)cccc4C(F)(F)F)cc3F)CC2)c1` [(272)]: the Ki came out at 35 nM.

For the molecule `CNc1ccc(C(=O)NC2(C(=O)NCc3ccc(Nc4ccc(F)cc4C(F)(F)F)cn3)CC2)cn1` [(377)], the Ki stood at 45 nM.

`CNc1ncc(C(=O)N[C@@]2(C(=O)NCc3ccc(Nc4ccc(Cl)cc4C(F)(F)F)cc3)CCOC2)cn1` [(323)]: the Ki is 69 nM.

As to `O=C(N[C@@]1(C(=O)NCc2ccc(Nc3ccccc3C(F)(F)F)cc2)CCOC1)C1CCOC1` (stereo partly shown) [(60)], the inhibition at 10 µM was 84%.

Consider `Cc1ccc(Nc2ccc(CNC(=O)C3(NC(=O)c4cncnc4)CC3)nc2)c(Cl)c1` [(189)], for which the Ki was more than 500 nM and the inhibition at 10 µM amounted to 96%.

As for `COc1ccc(C(=O)N[C@@]2(C(=O)NCc3ccc(Nc4ccccc4C(F)(F)F)cc3)CCOC2)o1` [(68)], the inhibition at 10 µM is 78%.

In turn, `Cn1ncc(C(=O)NC2(C(=O)NCc3ccc(Nc4ccc(F)cc4C(F)(F)F)cn3)CC2)cc1=O` [(221)] came in with a Ki of 13 nM.

Regarding `CC(C)Nc1ncc(C(=O)NC2(C(=O)NCc3ccc(Nc4ccc(Cl)cc4C(F)(F)F)cn3)CC2)cn1` [(382)], the affinity corresponds to a Ki of 6.8 nM.

As to `O=C(N[C@@]1(C(=O)NCc2ccc(Nc3ccccc3C(F)(F)F)cc2)CCOC1)c1ccnnc1` [(64)], the Ki stood at 98 nM and the inhibition at 10 µM turned out to be 109%.

Consider `O=C(Cc1cccnc1)N[C@@]1(C(=O)NCc2ccc(Nc3ccccc3C(F)(F)F)cc2)CCOC1` [(104)], for which the inhibition at 10 µM was 54%.

Turning to `Cc1ncc(C(=O)NC2(C(=O)NCc3ccc(Nc4ccc(F)cc4C(F)(F)F)cc3F)CC2)cn1` [(283)], the Ki came to 1.3 nM.

Consider `COCC(=O)NC1(C(=O)NCc2ccc(Nc3ccccc3C(F)(F)F)cc2)CC1` [(14)], for which the inhibition at 10 µM was determined as 84%.

The molecule `Nc1cncc(C(=O)N[C@@]2(C(=O)NCc3ncc(Nc4ccc(Cl)cc4C(F)(F)F)cc3Cl)CCOC2)c1` [(285)] yielded a Ki of 27 nM. In other words, the double-digit nanomolar range.

On to `CC(NC(=O)C1(NC(=O)c2cncnc2)CC1)c1ccc(Nc2c(F)cccc2C(F)(F)F)cn1` (stereo not shown) [(123)], for which the Ki came to 8.3 nM and the inhibition at 10 µM was found to be 110%.
